The record followed here is publication PMC8617627, “Novel DYRK1A Inhibitor Rescues Learning and Memory Deficits in a Mouse Model of Down Syndrome” (Pharmaceuticals, 2021).

One test deals with CDK2-Cyclin A (Homo sapiens, UniProt P24941). As to the kind of experiment: Kinase profile (33P ATP filter binding). The class given is biochemical.
In the next test the target is T1, EF2K (Homo sapiens, UniProt O00418).
T1 sequence (O00418 1-725): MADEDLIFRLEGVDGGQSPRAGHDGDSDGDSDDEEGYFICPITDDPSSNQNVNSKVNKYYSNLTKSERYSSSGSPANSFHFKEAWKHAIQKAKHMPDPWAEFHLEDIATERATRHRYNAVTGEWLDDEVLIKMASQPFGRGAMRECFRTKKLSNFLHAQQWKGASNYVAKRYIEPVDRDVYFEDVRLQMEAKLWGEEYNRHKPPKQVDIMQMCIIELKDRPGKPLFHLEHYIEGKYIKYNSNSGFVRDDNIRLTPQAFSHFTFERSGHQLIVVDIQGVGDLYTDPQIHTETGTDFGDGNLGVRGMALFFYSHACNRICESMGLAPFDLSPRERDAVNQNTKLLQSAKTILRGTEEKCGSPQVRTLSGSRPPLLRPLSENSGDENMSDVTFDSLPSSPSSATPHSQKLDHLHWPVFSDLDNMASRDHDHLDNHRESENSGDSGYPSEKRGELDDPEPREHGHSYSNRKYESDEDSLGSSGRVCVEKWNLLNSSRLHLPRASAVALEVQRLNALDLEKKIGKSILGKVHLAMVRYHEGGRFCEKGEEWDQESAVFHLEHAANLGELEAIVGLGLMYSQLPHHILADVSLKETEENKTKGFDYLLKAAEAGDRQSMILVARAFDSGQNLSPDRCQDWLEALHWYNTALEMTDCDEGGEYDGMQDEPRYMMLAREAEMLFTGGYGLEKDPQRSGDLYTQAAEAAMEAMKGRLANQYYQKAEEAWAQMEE
The test can be described thus: Kinase profile (33P ATP filter binding). The class given is biochemical. The following applies: read-out: Remaining protein kinase activity.

A further test has as its target MAP4K5 (Homo sapiens, UniProt Q9Y4K4). As to the kind of experiment: Kinase profile (33P ATP filter binding). In kind it is biochemical. The following applies: read-out: Remaining protein kinase activity.
In another test the target is MSK1 (Homo sapiens, UniProt O75582). The test can be described thus: Kinase profile (33P ATP filter binding). In kind it is biochemical. The following applies: read-out: Remaining protein kinase activity.
The target of another test is NEK6 (Homo sapiens, UniProt Q9HC98). As to the kind of experiment: Kinase profile (33P ATP filter binding). The class given is biochemical. The following applies: read-out: Remaining protein kinase activity.
The next test deals with PIM1 (Homo sapiens, UniProt P11309). As to the kind of experiment: Kinase profile (33P ATP filter binding). The following applies: read-out: Remaining protein kinase activity. In kind it is biochemical.
For the next test, the target named is PRK2 (Homo sapiens, UniProt Q16513). The test can be described thus: Kinase profile (33P ATP filter binding). In kind it is biochemical. The following applies: read-out: Remaining protein kinase activity.
Another test addresses T2, TLK1 (Homo sapiens, UniProt Q9UKI8).
T2 sequence (Q9UKI8 1-766): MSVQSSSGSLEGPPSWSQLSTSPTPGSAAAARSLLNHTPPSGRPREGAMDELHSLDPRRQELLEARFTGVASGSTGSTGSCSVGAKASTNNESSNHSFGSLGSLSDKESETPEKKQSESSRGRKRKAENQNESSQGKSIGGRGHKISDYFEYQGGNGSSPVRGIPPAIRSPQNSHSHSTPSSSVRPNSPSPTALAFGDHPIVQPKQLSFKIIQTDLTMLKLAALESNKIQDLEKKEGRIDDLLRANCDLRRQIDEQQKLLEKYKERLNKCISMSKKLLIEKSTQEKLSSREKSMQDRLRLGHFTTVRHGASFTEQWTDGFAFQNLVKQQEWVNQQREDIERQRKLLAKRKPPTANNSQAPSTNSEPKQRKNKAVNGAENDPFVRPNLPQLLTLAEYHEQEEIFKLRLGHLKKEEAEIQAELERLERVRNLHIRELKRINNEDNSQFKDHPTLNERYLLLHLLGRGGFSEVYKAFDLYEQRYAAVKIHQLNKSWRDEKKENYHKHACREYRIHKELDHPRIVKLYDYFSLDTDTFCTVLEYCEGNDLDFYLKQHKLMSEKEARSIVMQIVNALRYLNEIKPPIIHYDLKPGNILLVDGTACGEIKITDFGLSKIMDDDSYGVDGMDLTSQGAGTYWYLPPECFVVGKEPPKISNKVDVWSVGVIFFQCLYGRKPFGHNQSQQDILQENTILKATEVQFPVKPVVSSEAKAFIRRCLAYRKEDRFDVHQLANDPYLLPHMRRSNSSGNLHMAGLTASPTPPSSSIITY
The test can be described thus: Kinase profile (33P ATP filter binding). The class given is biochemical. The following applies: read-out: Remaining protein kinase activity.

The subject of the next test is 139-protein kinase panel. The test can be described thus: Selectivity on protein kinase panel (GINI-index). The following applies: in words.

By remaining activity is commonly meant the signal under treatment as a percentage of the control signal.

Structures are written as SMILES. Read-outs that look alike come from different tables or passages of the source.

PRK2, sequence (Q16513 whole entry, species assumed): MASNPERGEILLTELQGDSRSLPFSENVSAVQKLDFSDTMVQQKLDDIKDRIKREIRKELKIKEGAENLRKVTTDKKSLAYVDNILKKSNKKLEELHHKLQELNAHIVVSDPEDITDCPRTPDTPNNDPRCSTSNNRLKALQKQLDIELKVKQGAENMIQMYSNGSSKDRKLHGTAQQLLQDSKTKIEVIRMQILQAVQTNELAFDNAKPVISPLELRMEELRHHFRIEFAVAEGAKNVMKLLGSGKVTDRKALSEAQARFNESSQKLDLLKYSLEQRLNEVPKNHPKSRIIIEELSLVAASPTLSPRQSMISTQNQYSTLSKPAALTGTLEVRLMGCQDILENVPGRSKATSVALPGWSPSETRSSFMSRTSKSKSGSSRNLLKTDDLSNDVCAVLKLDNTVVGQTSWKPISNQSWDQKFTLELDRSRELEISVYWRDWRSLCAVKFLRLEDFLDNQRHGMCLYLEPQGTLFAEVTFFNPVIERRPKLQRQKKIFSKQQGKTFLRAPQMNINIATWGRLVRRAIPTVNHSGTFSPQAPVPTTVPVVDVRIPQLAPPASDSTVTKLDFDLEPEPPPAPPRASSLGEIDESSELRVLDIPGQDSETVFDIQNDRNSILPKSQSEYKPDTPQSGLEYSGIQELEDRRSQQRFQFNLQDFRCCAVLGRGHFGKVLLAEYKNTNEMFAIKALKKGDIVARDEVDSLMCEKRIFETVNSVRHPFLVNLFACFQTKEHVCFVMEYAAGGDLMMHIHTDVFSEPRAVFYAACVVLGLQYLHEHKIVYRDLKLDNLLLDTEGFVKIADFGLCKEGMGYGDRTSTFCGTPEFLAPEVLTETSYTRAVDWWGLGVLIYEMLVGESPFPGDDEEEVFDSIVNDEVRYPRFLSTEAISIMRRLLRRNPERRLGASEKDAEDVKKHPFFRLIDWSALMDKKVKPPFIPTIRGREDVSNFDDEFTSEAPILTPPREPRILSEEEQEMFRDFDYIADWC
MAP4K5, sequence (Q9Y4K4 whole entry): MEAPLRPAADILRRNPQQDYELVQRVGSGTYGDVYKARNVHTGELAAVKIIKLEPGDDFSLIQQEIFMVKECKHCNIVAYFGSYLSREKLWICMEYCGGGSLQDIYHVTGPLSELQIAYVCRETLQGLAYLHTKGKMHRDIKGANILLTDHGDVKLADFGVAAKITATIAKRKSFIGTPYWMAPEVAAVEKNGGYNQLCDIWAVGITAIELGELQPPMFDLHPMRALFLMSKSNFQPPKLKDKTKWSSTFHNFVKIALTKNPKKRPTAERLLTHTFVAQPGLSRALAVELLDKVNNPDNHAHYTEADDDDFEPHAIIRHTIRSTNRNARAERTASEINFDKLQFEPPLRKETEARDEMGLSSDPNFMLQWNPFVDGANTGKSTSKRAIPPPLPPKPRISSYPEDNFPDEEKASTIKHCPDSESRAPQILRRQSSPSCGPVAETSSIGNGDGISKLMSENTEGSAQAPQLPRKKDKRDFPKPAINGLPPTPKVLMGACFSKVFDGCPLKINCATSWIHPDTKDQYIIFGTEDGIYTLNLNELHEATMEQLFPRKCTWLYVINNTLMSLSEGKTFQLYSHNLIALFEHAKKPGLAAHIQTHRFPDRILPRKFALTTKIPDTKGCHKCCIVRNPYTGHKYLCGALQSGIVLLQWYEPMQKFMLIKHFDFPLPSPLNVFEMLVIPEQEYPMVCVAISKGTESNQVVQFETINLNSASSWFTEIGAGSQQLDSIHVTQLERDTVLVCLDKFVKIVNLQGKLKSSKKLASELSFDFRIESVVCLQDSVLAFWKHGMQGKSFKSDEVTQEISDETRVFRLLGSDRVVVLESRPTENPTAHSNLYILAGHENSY
PIM1, sequence (P11309 whole entry): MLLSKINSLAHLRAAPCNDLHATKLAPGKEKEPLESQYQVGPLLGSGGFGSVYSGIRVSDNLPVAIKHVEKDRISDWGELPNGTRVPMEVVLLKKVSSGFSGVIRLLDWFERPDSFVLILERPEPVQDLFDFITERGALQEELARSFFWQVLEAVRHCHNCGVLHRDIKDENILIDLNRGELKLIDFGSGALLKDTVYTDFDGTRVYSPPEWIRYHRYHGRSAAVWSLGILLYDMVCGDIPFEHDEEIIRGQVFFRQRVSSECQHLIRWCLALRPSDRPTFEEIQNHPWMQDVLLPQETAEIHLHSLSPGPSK
NEK6, sequence (Q9HC98 whole entry): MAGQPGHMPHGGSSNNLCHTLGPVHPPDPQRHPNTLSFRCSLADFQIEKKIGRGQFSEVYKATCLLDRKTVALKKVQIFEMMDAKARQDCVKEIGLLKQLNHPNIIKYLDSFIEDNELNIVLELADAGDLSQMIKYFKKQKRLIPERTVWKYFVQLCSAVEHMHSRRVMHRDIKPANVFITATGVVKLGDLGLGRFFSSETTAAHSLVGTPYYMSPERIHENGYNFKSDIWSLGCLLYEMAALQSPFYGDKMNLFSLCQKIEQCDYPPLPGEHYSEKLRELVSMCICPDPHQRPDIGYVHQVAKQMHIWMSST
MSK1, sequence (O75582 whole entry): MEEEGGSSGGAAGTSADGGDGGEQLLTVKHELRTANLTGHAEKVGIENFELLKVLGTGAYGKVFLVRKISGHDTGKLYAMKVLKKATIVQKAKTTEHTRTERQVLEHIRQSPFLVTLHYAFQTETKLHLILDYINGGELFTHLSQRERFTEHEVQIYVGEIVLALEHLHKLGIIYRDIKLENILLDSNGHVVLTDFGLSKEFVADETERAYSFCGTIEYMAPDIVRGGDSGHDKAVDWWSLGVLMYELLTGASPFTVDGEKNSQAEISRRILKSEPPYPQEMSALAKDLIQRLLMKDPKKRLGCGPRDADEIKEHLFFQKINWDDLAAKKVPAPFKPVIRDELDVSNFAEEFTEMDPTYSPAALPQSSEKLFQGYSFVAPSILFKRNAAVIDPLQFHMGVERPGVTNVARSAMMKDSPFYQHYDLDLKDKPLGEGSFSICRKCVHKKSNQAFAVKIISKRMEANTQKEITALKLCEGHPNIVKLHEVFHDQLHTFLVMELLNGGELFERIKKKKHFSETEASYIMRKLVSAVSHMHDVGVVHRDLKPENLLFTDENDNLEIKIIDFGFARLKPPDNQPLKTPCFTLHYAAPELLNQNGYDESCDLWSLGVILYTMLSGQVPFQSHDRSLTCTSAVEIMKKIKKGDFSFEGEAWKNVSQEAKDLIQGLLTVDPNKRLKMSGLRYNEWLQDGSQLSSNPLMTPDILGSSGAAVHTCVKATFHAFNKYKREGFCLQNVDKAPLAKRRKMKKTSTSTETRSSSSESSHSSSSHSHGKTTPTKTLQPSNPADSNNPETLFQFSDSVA
Method for 139-protein kinase panel: The determination of protein kinase inhibition was performed at the International Centre for Kinase Profiling at the University of Dundee, UK. The method used is a radioactive filter binding assay using ^33P ATP as described in the literature [79]. The ATP concentrations were at or below the calculated Km for ATP for each particular kinase.

As to `COc1ccc2sc(-c3cncc(N)c3)nc2c1` [compound 1, 5-(5-Methoxybenzo[d]thiazol-2-yl)pyridin-3-amine], the “Remaining protein kinase activity” value at CDK2-Cyclin A (1 μM) is reported as 96%; on CDK2-Cyclin A (100 μM) it was 19%. Besides, the remaining activity at 1 µM at EF2K (EF2K, 1 μM) stood at 112%; at MAP4K5 (MAP4K5, 1 μM), 106%; on MSK1 (MSK1, 1 μM), 109%; on NEK6 (NEK6, 1 μM), 106%; at PIM1 (PIM1, 1 μM), 87%; at PRK2 (PRK2, 1 μM), 103%. At TLK1 (TLK1, 1 μM), the remaining activity at 1 µM stood at 131%. For the same compound, the remaining activity at 100 µM on EF2K (EF2K, 100 μM) was 84%; at MAP4K5 (MAP4K5, 100 μM) it was 61%; on MSK1 (MSK1, 100 μM), 60%; on NEK6 (NEK6, 100 μM), 115%; at PIM1 (PIM1, 100 μM) it was 24%; at PRK2 (PRK2, 100 μM) it was 74%. In addition, the remaining activity at 100 µM at TLK1 (TLK1, 100 μM) turned out to be 115%. The “Selectivity in the protein kinase panel” value in the test on 139-protein kinase panel is reported as “high selectivity towards DYRK1A”.

Regarding `COc1ccc2sc(-c3cncc(NC(C)=O)c3)nc2c1` [PST-001, N-(5-(5-Methoxybenzo[d]thiazol-2-yl)pyridin-3-yl)acetamide], the “Remaining protein kinase activity” value at CDK2-Cyclin A (1 μM) worked out at 110%; on CDK2-Cyclin A (100 μM), 69%. Moreover, the remaining activity at 1 µM on EF2K worked out at 113%; at MAP4K5, 82%; at MSK1, 104%; at NEK6, 112%; on PIM1, 98%; on PRK2, 102%. Also, the remaining activity at 1 µM at TLK1 worked out at 129%. Also, the remaining activity at 100 µM at EF2K was 106%; at MAP4K5, 92%; at MSK1, 64%; at NEK6 it was 113%; at PIM1 it was 32%; on PRK2 it was 101%. At TLK1, the remaining activity at 100 µM was found to be 134%.
